# Where “and” joins values, the source holds several entries; their conditions need not be identical. Equal entries are not always repeated. Entries after “also recorded” stand apart in the source; their conditions may differ.
# Key:
# [1] = tested on: granulocyte/macrophage (CFU-GM); assay: Cytotoxicity: inhibition of mouse granulocyte/macrophage (CFU-GM) colony formation; assay type: cell-based; details: read-out: inhibitory concentration 50% for colony formation (IC50)
# Experimental: CP-51 and AZT were assayed for cytotoxicity by inhibition of mouse precursor erythrocyte (CFU-E) and granulocyte/macrophage (CFU-GM) cell colony formation. Mouse bone marrow precursor cells were suspended in soft-agar-RPMI-1640 medium supplmented with cell growth factors and serial concentrations of alkyl lipid.
# [2] = Cytotoxicity of alkyl lipids, neutral red dye uptake (Table 1); assay type: cell-based; details: human, hep-g2 cells
# Procedure, shortened: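 HepG2 cells carrying tandem HBV genomes, with a G418-resistance plasmid, were given four serial compound concentrations in triplicate in RPMI-1640 for nine days at 37° C, with periodic medium replacement. Viability was measured by 0.01% neutral red uptake (A510) and expressed as percent of untreated control wells ±SD.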
# Hepatitis B virus = assay: Effect of alkyl lipids on HBV replication in HBV persistently infected human HEP G2 cells (Table 6); assay type: cell-based; details: for Intracellular HBV DNA, Mono (episomal 3.2-3.8 Kb HBV genomes) / Intracellular HBV DNA, RI (replication intermediates): nine days
# Procedure, shortened: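 Persistently HBV-infected HepG2 cells exposed to compound for nine days at 37 °C, intracellular HBV DNA analysed 24 h after day nine. Episomal 3.2-3.8 Kb genomes and replication intermediates normalized to integrated HBV DNA; virion DNA detection cut-off 0.1 pg DNA/ml culture medium.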
# HIV-1 = assay type: in vivo; details: rat, single oral dose of 15 mg/kg by gavage
# Experimental: The biologic activity of alkyl lipid CP-51 was evaluated in vivo. Sprague Dawley rats were fasted for 18 hours and received a single oral dose of 15 mg/kg of the alkyl lipid CP-51 by gavage. An in-dwelling carotid catheter was used to harvest whole blood at various times post-dose. The plasma containing the alkyl lipid was diluted 1:2 to 1:128 in phosphate buffered saline and assayed for biologic activity using the HIV-1 syncytial plaque test. CEM-SS cell monolayers were infected with HIV-1 and overlaid with RPMI-1640 medium containing serial dilutions of plasma. After incubation for five days at 37° C., the number of HIV-1 syncytial plaques was counted as previously described (Kucera et al., AIDS Res. Human Retroviruses, 6: 491-501, (1990)).
# [3] = tested on: HEP G2 cells persistently infected with HBV; assay: Cytotoxicity in HBV persistently infected human HEP G2 cells, neutral red dye uptake (Table 5); assay type: cell-based
# Procedure, shortened: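 HBV-transfected HEP-G2 monolayers in RPMI-1640 were given compound at four serial concentrations in triplicate for nine days at 37 °C, with periodic medium replacement. Toxicity from 0.01% neutral red uptake (A510), as percent of nine untreated control wells on the same plate.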
# [4] = tested on: mouse precursor erythrocyte (CFU-E); assay: Cytotoxicity: inhibition of mouse precursor erythrocyte (CFU-E) colony formation; assay type: cell-based
# Experimental: CP-51 and AZT were assayed for cytotoxicity by inhibition of mouse precursor erythrocyte (CFU-E) and granulocyte/macrophage (CFU-GM) cell colony formation.
# Friend-Leukemia virus = assay: Inhibition of retrovirus-induced splenomegaly in Friend-Leukemia virus infected mice (Table 9); assay type: in vivo
# Experimental: Mice were infected I.P. with Friend-Leukemia virus and not treated or treated I.P. with daily doses of phospholipid. After 14 days infection and treatment, the mice were sacrificed, the spleens were removed and weighed to determine the percentage, of control splenomegaly. […] Even a single dose of 25 mg/kg CP-51 inhibited splenomegaly by 36%.
compound,measurement,setting,value
"CCCCCCCCCCCCCCCCCC(=O)NCC(COP(=O)([O-])OCC[N+](C)(C)C)OCC (racemic) [CP-51, rac-3-octadecanamido-2-ethyoxy-1-propylphosphocholine]",IC50,[1],11 mg/L
same,"cytotoxicity at 216 h, 30 µM",[2],4%
same,"cytotoxicity at 216 h, 100 µM",[2],29%
same,"viability at 216 h, 3 µM",[2],101 ± 1%
same,"viability at 216 h, 10 µM",[2],100 ± 4%
same,"viability at 216 h, 30 µM",[2],96 ± 2%
same,"viability at 216 h, 100 µM",[2],71 ± 1%
same,"Intracellular HBV DNA, Mono (episomal 3.2-3.8 Kb HBV genomes)",Hepatitis B virus; 0.1 μM,2.7 pg/μg Cell DNA and 2.4 pg/μg Cell DNA and 2.3 pg/μg Cell DNA and 2.5 pg/μg Cell DNA and 2.9 pg/μg Cell DNA and 2.2 pg/μg Cell DNA and 2.6 pg/μg Cell DNA and 2.1 pg/μg Cell DNA
same,"Intracellular HBV DNA, RI (replication intermediates)",Hepatitis B virus; 0.1 μM,54 pg/μg Cell DNA and 62 pg/μg Cell DNA and 51 pg/μg Cell DNA
same,HBV Virion DNA,"Hepatitis B virus; 1 μM, Day 9",9 pg/ml Culture Medium and 8 pg/ml Culture Medium and 12 pg/ml Culture Medium and 10 pg/ml Culture Medium and 13 pg/ml Culture Medium and 11 pg/ml Culture Medium and 14 pg/ml Culture Medium and 16 pg/ml Culture Medium
same,"Intracellular HBV DNA, Mono (episomal 3.2-3.8 Kb HBV genomes)",Hepatitis B virus; 1 μM,2.2 pg/μg Cell DNA and 2.3 pg/μg Cell DNA and 2.4 pg/μg Cell DNA and 2.6 pg/μg Cell DNA and 2.0 pg/μg Cell DNA and 2.1 pg/μg Cell DNA
same,"Intracellular HBV DNA, RI (replication intermediates)",Hepatitis B virus; 1 μM,12 pg/μg Cell DNA and 16 pg/μg Cell DNA and 17 pg/μg Cell DNA and 14 pg/μg Cell DNA and 13 pg/μg Cell DNA and 23 pg/μg Cell DNA and 21 pg/μg Cell DNA and 18 pg/μg Cell DNA
same,HBV Virion DNA,"Hepatitis B virus; 10 μM, Day 0",59 pg/ml Culture Medium and 58 pg/ml Culture Medium and 60 pg/ml Culture Medium and 78 pg/ml Culture Medium and 51 pg/ml Culture Medium and 56 pg/ml Culture Medium and 64 pg/ml Culture Medium
same,HBV Virion DNA,"Hepatitis B virus; 10 μM, Day 3",55 pg/ml Culture Medium and 49 pg/ml Culture Medium and 44 pg/ml Culture Medium and 48 pg/ml Culture Medium and 33 pg/ml Culture Medium and 30 pg/ml Culture Medium and 36 pg/ml Culture Medium and 40 pg/ml Culture Medium
same,HBV Virion DNA,"Hepatitis B virus; 10 μM, Day 6",20 pg/ml Culture Medium and 13 pg/ml Culture Medium and 10 pg/ml Culture Medium and 18 pg/ml Culture Medium and 12 pg/ml Culture Medium and 11 pg/ml Culture Medium and 14 pg/ml Culture Medium
same,"Intracellular HBV DNA, Mono (episomal 3.2-3.8 Kb HBV genomes)",Hepatitis B virus; 10 μM,1.7 pg/μg Cell DNA and 1.9 pg/μg Cell DNA and 1.8 pg/μg Cell DNA and 2.0 pg/μg Cell DNA and 1.3 pg/μg Cell DNA and 1.1 pg/μg Cell DNA and 1.2 pg/μg Cell DNA and 1.0 pg/μg Cell DNA
same,inhibition of HBV virion DNA and intracellular HBV RI DNA levels,"Hepatitis B virus; in words, versus ddC",markedly inhibited; also recorded: substantially inhibited
same,absorption into the blood,HIV-1,rapidly absorbed into the blood of rats
same,biologically active concentrations in the blood (plasma),HIV-1; HIV-1 syncytial plaque test,biologically active concentrations of the compound CP-51 were obtained in the blood (plasma)
same,Cell toxicity (greater than 50% depression of dye uptake),[3],did not occur
same,% of Control Neutral Red Dye Uptake,"[3]; human, hep-g2 cells, 216 h, 3 µM",101 ± 1 % of Control
same,cytotoxicity relative to AZT,"[4]; CFU-E and CFU-GM, in words",significantly less cytotoxic than AZT
same,IC50,"[4]; Mus musculus, Erythrocyte, read-out: inhibitory concentration 50% for colony formation (IC50)",41 mg/L
same,inhibition of retrovirus-induced splenomegaly,Friend-Leukemia virus; 12.5 mg/kg/day intraperitoneally,43%
same,% of Control Splenomegaly,"Friend-Leukemia virus; 12.5 mg/kg/day, daily treatment",43 % of Control
same,% of Control Splenomegaly,"Friend-Leukemia virus; 25 mg/kg, one treatment",36 % of Control
same,anti-retrovirus activity in infected animals,Friend-Leukemia virus; in words,has anti-retrovirus activity in infected animals
same,inhibition of retrovirus-induced splenomegaly,Friend-Leukemia virus; single dose of 25 mg/kg,36%
"Nc1ccn([C@H]2CC[C@@H](CO)O2)c(=O)n1 [2',3'-dideoxycytidine, 2', 3'-dideoxycytidine, reference compound]","viability at 216 h, 3 µM",[2],100 ± 1%
same,"viability at 216 h, 10 µM",[2],102 ± 1%
same,"viability at 216 h, 30 µM",[2],99 ± 2%
same,"viability at 216 h, 100 µM",[2],35 ± 2%
same,HBV Virion DNA,"Hepatitis B virus; 10 μM, Day 0",67 pg/ml Culture Medium and 64 pg/ml Culture Medium and 58 pg/ml Culture Medium and 59 pg/ml Culture Medium
same,HBV Virion DNA,"Hepatitis B virus; 10 μM, Day 3",49 pg/ml Culture Medium and 55 pg/ml Culture Medium and 50 pg/ml Culture Medium and 58 pg/ml Culture Medium
same,HBV Virion DNA,"Hepatitis B virus; 10 μM, Day 6",20 pg/ml Culture Medium and 18 pg/ml Culture Medium and 17 pg/ml Culture Medium and 15 pg/ml Culture Medium
same,"Intracellular HBV DNA, RI (replication intermediates)",Hepatitis B virus; 10 μM,8 pg/μg Cell DNA and 7 pg/μg Cell DNA and 9 pg/μg Cell DNA

# — patent US6030960A, “Method of treating hepatitis virus infections” (priority 1998, dated 2000)
